Measurements taken from patent US20140227303A1, “METHODS FOR DIAGNOSING AND MONITORING DISEASES OR CONDITIONS USING DISEASE MODIFIED BIOMOLECULES AND MEASUREMENT OF A FUNCTIONAL IMMUNE RESPONSE” (VIRACOR-IBT LABORATORIES, priority 2011, published 2014).
Entries after “also recorded” stand apart in the source; their conditions may differ. Read-outs that look alike come from different tables or passages of the source. Square brackets hold non-standard residues; d marks the D form. Ends that are not written are not given here. Peptide text beside a SMILES is read from it. Cit = NC(=O)NCCC[C@H](N)C(=O)O

Tests used:
[1] = test system: PBMCs from RA patients; assay: Cellular stimulation assay: PBMCs incubated with individual peptides DMB 1001-DMB 1010, cytokines in supernatant by AlphaLisa; format: cell-based, human; settings: peptide 10 μg/ml, 20 hrs incubation
Procedure: Experiment 1: Cytokine Production after Stimulation of PBMCs from RA Patients with Individual Peptides DMB 1001-DMB 1010
Experimental setting: Peripheral blood mononuclear cells (PBMCs) were prepared from freshly collected blood using a Ficoll gradient method. The cellular stimulation assay was performed by incubation of PBMCs with the individual peptides DMB 1001-DMB 1010 at a concentration of 10 μg/ml. Approximately 300,000 to 500,000 PBMC cells were used for each stimulation assay in a cell culture AIM V serum free medium (Life Technologies) within a 96 well round bottom plate. TNFα, IL6 and IL1b concentrations in culture supernatants were determined using the AlphaLisa® method after 20 hrs of incubation.

[2] = test system: PBMCs; assay: Cellular stimulation assay: PBMCs incubated with individual peptides DMB 1011 to DMB 1016, TNFα and IL6 by AlphaLisa; format: cell-based, human; settings: for Stimulation response of peptides with same sequence but only one or two citrullines (in words): compared with fully citrullinated peptide; for Stimulation of cells to produce TNF and IL-6 (in words): fibrinogen based peptides with 3 citrulline residues
Procedure: Experiment 2. Cytokine Production after PBMC Stimulation Using Individual Peptides from DMB 1011 to DMB 1016
Experimental setting: Peripheral blood mononuclear cells (PBMCs) were prepared from freshly collected blood using a Ficoll gradient method. The cellular stimulation assay was performed by incubating PBMCs with individual peptides DMB 1011 to DMB 1016. Approximately 300,000 to 500,000 PBMC cells were used for each stimulation assay in a cell culture AIM V serum free medium (Life Technologies) within a 96 well round bottom plate. Concentrations of TNFα and IL6 in culture supernatants were determined after 20 hrs incubation using the AlphaLisa® method.

[3] = Peptide solubility in water; format: physicochemical

Molecule	TNFα concentration in culture supernatant ([1]; PBMC Sample 1) [pg/mL]	TNFα concentration in culture supernatant ([1]; PBMC Sample 2) [pg/mL]	other results
NEEGFFSA[Cit]GHRPLDKK [DMB 1003]	4.1	2.2	
lipopolysaccharide [LPS, reference compound]	1708.9	508.9	
GGVYATRSSAV[Cit]LRSSVP [DMB 1014]			Stimulation response of peptides with same sequence but only one or two citrullines (in words) [2]: greatly diminished; Stimulation of cells to produce TNF and IL-6 (in words) [2]: failed to stimulate cells
GGVYATRSSAV[Cit]L[Cit]SSVP [DMB 1013]			Stimulation response of peptides with same sequence but only one or two citrullines (in words) [2]: greatly diminished
GGV[Cit]GP[Cit]VVE[CIT]HQSACKD (GGV[Cit]GP[Cit]VVE[Cit]HQSACKD) [DMB 1015]			Stimulation of cells to produce TNF and IL-6 (in words) [2]: failed to stimulate cells
GP[Cit]VVE[Cit]HQSACKDS [DMB 1007]	4.3	4.6	
GPRVVERHQSACKDS [DMB 1008, Fibrinogen alpha chain peptide, not citrullinated]	7.1	7.5	
CC(C)C[C@H](NC(=O)[C@H](CCCNC(N)=O)NC(=O)[C@@H](NC(=O)[C@H](C)NC(=O)[C@H](CO)NC(=O)[C@H](CO)NC(=O)[C@H](CCCNC(N)=O)NC(=O)[C@@H](NC(=O)[C@H](C)NC(=O)[C@H](Cc1ccc(O)cc1)NC(=O)[C@@H](NC(=O)CNC(=O)CN)C(C)C)[C@@H](C)O)C(C)C)C(=O)N[C@@H](CCCNC(N)=O)C(=O)N[C@@H](CO)C(=O)N[C@@H](CO)C(=O)N[C@H](C(=O)N1CCC[C@H]1C(=O)O)C(C)C [DMB 1011, GGVYAT[Cit]SSAV[Cit]L[Cit]SSVP]			Water solubility (in words) [3]: improved the peptide solubility in water; also recorded: water soluble; Water solubility (in words) ([3]; listed as SEQ ID NO: 11): increases the water solubility
KIHA[Cit]EIFDS[Cit]GNPTVE [DMB 1009]	5.0	6.4	
KIHAREIFDSRGNPTVE [DMB 1010, Alpha enolase peptide, not citrullinated]	2.3	3.6	
HQCHQEST[Cit]GRSRGRCGRSGS (cysteine pairing not given here) [DMB 1005]	2.1	3.6	
GGVYAT[Cit]SSAVRL[Cit]SSVP [DMB 1012]			Stimulation response of peptides with same sequence but only one or two citrullines (in words) [2]: greatly diminished
CC(C)C[C@H](NC(=O)[C@H](CCCNC(N)=O)NC(=O)[C@@H](NC(=O)[C@H](C)NC(=O)[C@H](CO)NC(=O)[C@H](CO)NC(=O)[C@H](CCCNC(N)=O)NC(=O)[C@@H](NC(=O)[C@H](C)NC(=O)[C@H](Cc1ccc(O)cc1)NC(=O)[C@@H](N)C(C)C)[C@@H](C)O)C(C)C)C(=O)N[C@@H](CCCNC(N)=O)C(=O)N[C@@H](CO)C(=O)N[C@@H](CO)C(=O)N[C@H](C(=O)N1CCC[C@H]1C(=O)O)C(C)C [DMB 1001, VYAT[Cit]SSAV[Cit]L[Cit]SSVP] (H-VYAT[Cit]SSAV[Cit]L[Cit]SSVP-OH; N-terminus and C-terminus assumed)			Water solubility (in words) [3]: not water soluble
HQCHQESTRGRSRGRCGRSGS [DMB 1006, Filaggrin peptide, not citrullinated]	2.7	7.6	
NEEGFFSARGHRPLDKK [DMB 1004, Fibrinogen beta chain peptide, not citrullinated]	2.5	6.7	
VYATRSSAVRLRSSVP [DMB 1002, Vimentin-derived peptide, not citrullinated]	7.7	2.7	IL1b concentration in cell culture ([1]; PBMC Sample 1): 1; IL6 concentration in cell culture ([1]; PBMC Sample 1): 0; IL1b concentration in cell culture ([1]; PBMC Sample 2): 0; IL6 concentration in cell culture ([1]; PBMC Sample 2): 0
